Laboratory results: ChEMBL document CHEMBL5113512, “β-Nitrostyrene derivatives as broad range potential antifungal agents targeting fungal cell wall” (2022)
Converted amounts (≈) assume the structure as drawn. The source made the active and inactive calls. No cut-off for these calls is given here.

Experiments:
[1] = test system: Candida albicans; assay: Antifungal activity against Candida albicans ATCC 24433 overexpressing ADCaMDR1-GFP assessed as inhibition of fungal growth by broth microdilution method; type: functional
[2] = test system: Candida albicans; assay: Antifungal activity against Candida albicans ATCC 24433 overexpressing ADPDR5-GFP assessed as inhibition of fungal growth by broth microdilution method; type: functional
[3] = test system: Candida albicans; assay: Antifungal activity against Candida albicans ATCC 24433 assessed as inhibition of fungal growth by broth microdilution method; type: functional
[4] = test system: [Candida] auris; assay: Antifungal activity against Candida auris 102 assessed as inhibition of fungal growth by broth microdilution method; type: functional; settings: Candidozyma auris
[5] = test system: Candida albicans; assay: Antifungal activity against Candida albicans ATCC 24433 overexpressing transporter protein F5 assessed as inhibition of fungal growth by broth microdilution method; type: functional
[6] = test system: Candida tropicalis; assay: Antifungal activity against Candida tropicalis ATCC 750 assessed as inhibition of fungal growth by broth microdilution method; type: functional
[7] = test system: Nakaseomyces glabratus; assay: Antifungal activity against Candida glabrata ATCC 2001 assessed as inhibition of fungal growth by broth microdilution method; type: functional
[8] = test system: Candida albicans; assay: Antifungal activity against Candida albicans ATCC 24433 overexpressing ADCDR1-GFP assessed as inhibition of fungal growth by broth microdilution method; type: functional
[9] = test system: [Candida] auris; assay: Antifungal activity against Candida auris 118 assessed as inhibition of fungal growth by broth microdilution method; type: functional; settings: Candidozyma auris
[10] = test system: Candida albicans; assay: Antifungal activity against Candida albicans ATCC 24433 overexpressing transporter protein GU5 assessed as inhibition of fungal growth by broth microdilution method; type: functional
[11] = test system: Candida albicans; assay: Antifungal activity against Candida albicans ATCC 24433 overexpressing AD(1-8)u-assessed as inhibition of fungal growth by broth microdilution method; type: functional
[12] = test system: [Candida] auris; assay: Antifungal activity against Candida auris 105 assessed as inhibition of fungal growth by broth microdilution method; type: functional; settings: Candidozyma auris
[13] = test system: Candida albicans; assay: Antifungal activity against Candida albicans ATCC 24433 overexpressing transporter protein F2 assessed as inhibition of fungal growth by broth microdilution method; type: functional
[14] = test system: Candida albicans; assay: Antifungal activity against Candida albicans ATCC 24433 overexpressing transporter protein GU4 assessed as inhibition of fungal growth by broth microdilution method; type: functional
[15] = test system: [Candida] auris; assay: Antifungal activity against wild type Candida auris 102 assessed as inhibition of fungal growth by broth microdilution method; type: functional; settings: Candidozyma auris
[16] = test system: Candida parapsilosis; assay: Antifungal activity against Candida parapsilosis ATCC 90018 assessed as inhibition of fungal growth by broth microdilution method; type: functional; settings: Lodderomyces parapsilosis
[17] = test system: Candida albicans; assay: Antifungal activity against wild type Candida albicans SN152 assessed as inhibition of fungal growth by broth microdilution method; type: functional
[18] = test system: Candida; assay: Downregulation of CDC15 gene expression in Candida cells; type: functional, cell-based
[19] = test system: Candida; assay: Downregulation of GUT1 gene expression in Candida cells; type: functional, cell-based
[20] = test system: Candida; assay: Downregulation of CDC4 gene expression in Candida cells; type: functional, cell-based
[21] = test system: Candida; assay: Downregulation of STT4 gene expression in Candida cells; type: functional, cell-based
[22] = test system: Candida; assay: Downregulation of CDC42 gene expression in Candida cells; type: functional, cell-based
[23] = test system: Candida albicans; assay: Antifungal activity against Candida albicans SN152 harboring CAS5 mutant assessed as inhibition of fungal growth by broth microdilution method; type: functional
[24] = test system: Candida albicans; assay: Synergistic antifungal activity against Candida albicans ATCC 24433 overexpressing ADCaMDR1-GFP assessed as fractional inhibitory concentration index incubated for 48 hrs in presence of caspofungin by checker board assay; type: functional
[25] = test system: Candida albicans; assay: Synergistic antifungal activity against Candida albicans ATCC 24433 overexpressing ADPDR5-G assessed as fractional inhibitory concentration index incubated for 48 hrs in presence of caspofungin by checker board assay; type: functional
[26] = test system: Candida albicans; assay: Synergistic antifungal activity against Candida albicans ATCC 24433 assessed as fractional inhibitory concentration index incubated for 48 hrs in presence of caspofungin by checker board assay; type: functional
[27] = test system: Candida albicans; assay: Synergistic antifungal activity against Candida albicans ATCC 24433 overexpressing ADCDR1-GFP assessed as fractional inhibitory concentration index incubated for 48 hrs in presence of caspofungin by checker board assay; type: functional

SMILES: C/C(=C\c1ccc(N(C)C)cc1)[N+](=O)[O-]
- MIC80 [1]: 8 µg/mL (≈ 38.8 µM)
- MIC80 [2]: 16 µg/mL (≈ 77.6 µM)
- MIC80 [3]: 16 µg/mL (≈ 77.6 µM)
- MIC80 [4]: 8 µg/mL (≈ 38.8 µM)
- MIC80 [5]: 16 µg/mL (≈ 77.6 µM)
- MIC80 [6]: 16 µg/mL (≈ 77.6 µM)
- MIC80 [7]: 32 µg/mL (≈ 155 µM)
- MIC80 [8]: 32 µg/mL (≈ 155 µM)
- MIC80 [9]: 8 µg/mL (≈ 38.8 µM)
- MIC80 [10]: 16 µg/mL (≈ 77.6 µM)
- MIC80 [11]: 16 µg/mL (≈ 77.6 µM)
- MIC80 [12]: 8 µg/mL (≈ 38.8 µM)
- MIC80 [13]: 16 µg/mL (≈ 77.6 µM)
- MIC80 [14]: 16 µg/mL (≈ 77.6 µM)
- MIC80 [15]: 8 µg/mL (≈ 38.8 µM)
- MIC80 [16]: 32 µg/mL (≈ 155 µM)

SMILES: CC[C@H](C)C[C@H](C)CCCCCCCCC(=O)N[C@H]1C[C@@H](O)[C@@H](NCCN)NC(=O)[C@@H]2[C@@H](O)CCN2C(=O)[C@H]([C@H](O)CCN)NC(=O)[C@H]([C@H](O)[C@@H](O)c2ccc(O)cc2)NC(=O)[C@@H]2C[C@@H](O)CN2C(=O)[C@H]([C@@H](C)O)NC1=O [CASPOFUNGIN]
- MIC80 [17]: 0.125 µg/mL (≈ 0.114 µM)
- Activity [18]: Active
- Activity [19]: Active
- Activity [20]: Active
- Activity [21]: Active
- Activity [22]: Active
- MIC80 [23]: 0.0156 µg/mL (≈ 0.0143 µM)

SMILES: COc1ccc(/C=C/[N+](=O)[O-])cc1OC
- MIC80 [1]: 16 µg/mL (≈ 76.5 µM)
- MIC80 [2]: 16 µg/mL (≈ 76.5 µM)
- MIC80 [3]: 32 µg/mL (≈ 153 µM)
- MIC80 [4]: 8 µg/mL (≈ 38.2 µM)
- MIC80 [5]: 16 µg/mL (≈ 76.5 µM)
- MIC80 [6]: 16 µg/mL (≈ 76.5 µM)
- MIC80 [7]: 32 µg/mL (≈ 153 µM)
- MIC80 [8]: 32 µg/mL (≈ 153 µM)
- MIC80 [9]: 4 µg/mL (≈ 19.1 µM)
- MIC80 [10]: 16 µg/mL (≈ 76.5 µM)
- MIC80 [11]: 16 µg/mL (≈ 76.5 µM)
- MIC80 [12]: 8 µg/mL (≈ 38.2 µM)
- MIC80 [13]: 16 µg/mL (≈ 76.5 µM)
- MIC80 [14]: 32 µg/mL (≈ 153 µM)
- MIC80 [15]: 4 µg/mL (≈ 19.1 µM)
- MIC80 [16]: 32 µg/mL (≈ 153 µM)

SMILES: OC(Cn1cncn1)(Cn1cncn1)c1ccc(F)cc1F [FLUCONAZOLE]
- MIC80 [17]: 1 µg/mL (≈ 3.27 µM)
- MIC80 [23]: 1 µg/mL (≈ 3.27 µM)

SMILES: COc1ccc(/C=C(\C)[N+](=O)[O-])cc1
- MIC80 [1]: 4 µg/mL (≈ 20.7 µM)
- MIC80 [2]: 4 µg/mL (≈ 20.7 µM)
- MIC80 [3]: 8 µg/mL (≈ 41.4 µM)
- MIC80 [4]: 4 µg/mL (≈ 20.7 µM)
- MIC80 [5]: 2 µg/mL (≈ 10.4 µM)
- MIC80 [6]: 4 µg/mL (≈ 20.7 µM)
- MIC80 [7]: 4 µg/mL (≈ 20.7 µM)
- MIC80 [8]: 8 µg/mL (≈ 41.4 µM)
- fractional inhibitory concentration index (FICI) [24]: <0.5
- MIC80 [9]: 4 µg/mL (≈ 20.7 µM)
- fractional inhibitory concentration index (FICI) [25]: <0.5
- fractional inhibitory concentration index (FICI) [26]: <1.5
- MIC80 [10]: 4 µg/mL (≈ 20.7 µM)
- MIC80 [11]: 4 µg/mL (≈ 20.7 µM)
- MIC80 [12]: 2 µg/mL (≈ 10.4 µM)
- MIC80 [13]: 2 µg/mL (≈ 10.4 µM)
- MIC80 [14]: 4 µg/mL (≈ 20.7 µM)
- MIC80 [15]: 2 µg/mL (≈ 10.4 µM)
- MIC80 [16]: 16 µg/mL (≈ 82.8 µM)
- fractional inhibitory concentration index (FICI) [27]: <0.5
